“Also recorded” adds a separate entry of the source. Read-outs that look alike come from different tables or passages of the source.
Legend:
hypoxic tumor cells = settings: in vitro and in vivo, background, cited from earlier work
central nervous system = settings: cited from earlier work
[1] = biological target: T1, Poly (ADP-ribose) synthetase (Bos taurus, UniProt P18493); experiment: Inhibition of Poly (ADP-ribose) synthetase (ADPRP inhibition); assay type: biochemical; settings: [3H]NAD, calf thymus DNA and histone, pH 8.0, 30° C., 15 minutes
T1 construct: Poly(ADP-ribose) synthetase from calf thymus; from tissue; host or cells: calf thymus
Protocol: Poly (ADP-ribose) synthetase is partially purified by the procedure of Shizuta, et al, up to and including the DNA-agarose column step. Active fractions are pooled and stored in small aliquots at -90° C. The specific activity was generally in the range of 25 U/rag protein, where one unit of enzyme activity is defined as the amount polymerizing 1 nmol of ADP-ribose moiety from [^3 H]NAD per minute at 30° C.
The enzyme assay is performed by placing the following in small glass tubes kept at 4° C.: 100 μL of buffer consisting of 0.5 M Tris-HCl pH 8.0, 50 mM MgCl2, and 5 mM dithiothreitol; 50 μL of 1 mM [adenine-2,8-^3 H]nicotinamide adenine dinucleotide at a concentration of 15 μCi/mL; 100 μL of calf thymus DNA (0.3 mg/mL in water); 50 μL of calf thymus histone (Sigma, Type IIA, 0.5 mg/mL); 50 μL of inhibitor or inhibitor solvent; 150 μL of enzyme (25 μg). The components are thoroughly mixed and warmed to 30° C. in a water bath. After 15 minutes the reaction is stopped by adding 2 mL of ice cold 15% trichloroacetic acid and the tubes are placed on ice for 15 minutes. The precipitate is collected on glass fiber filters and washed five times with ice-cold 15% trichloroacetic acid. The filters are dried and radioactivity determined in a liquid scintillation counter.

Rif-1 sarcoma = experiment: In Vivo Assay for Radiosensitizing Activity (Rif-1 sarcoma); set-up: species or system mice; settings: IP 30 minutes before first x-ray dose, Days 6-10 and 13-17, x-Ray only T-C 18 days
Protocol: Mice were implanted with 1.9×10^5 Rif-1 sarcoma cells on Day 0. Treatment was on Days 6-10 and 13-17. On each treatment day the tumor-bearing limb received two doses of 2.5 Gy X-irradiation separated by 3 hours. Test compound was administered IP 30 minutes prior to the first x-ray dose on each treatment day. Effectiveness is measured by the T-C, the difference in days for the treated and control tumors, respectively, to reach 1000 mg.

[2] = test system: repair of damage caused by ionizing radiation; settings: background; cited from earlier work

T1 sequence (P18493 whole entry): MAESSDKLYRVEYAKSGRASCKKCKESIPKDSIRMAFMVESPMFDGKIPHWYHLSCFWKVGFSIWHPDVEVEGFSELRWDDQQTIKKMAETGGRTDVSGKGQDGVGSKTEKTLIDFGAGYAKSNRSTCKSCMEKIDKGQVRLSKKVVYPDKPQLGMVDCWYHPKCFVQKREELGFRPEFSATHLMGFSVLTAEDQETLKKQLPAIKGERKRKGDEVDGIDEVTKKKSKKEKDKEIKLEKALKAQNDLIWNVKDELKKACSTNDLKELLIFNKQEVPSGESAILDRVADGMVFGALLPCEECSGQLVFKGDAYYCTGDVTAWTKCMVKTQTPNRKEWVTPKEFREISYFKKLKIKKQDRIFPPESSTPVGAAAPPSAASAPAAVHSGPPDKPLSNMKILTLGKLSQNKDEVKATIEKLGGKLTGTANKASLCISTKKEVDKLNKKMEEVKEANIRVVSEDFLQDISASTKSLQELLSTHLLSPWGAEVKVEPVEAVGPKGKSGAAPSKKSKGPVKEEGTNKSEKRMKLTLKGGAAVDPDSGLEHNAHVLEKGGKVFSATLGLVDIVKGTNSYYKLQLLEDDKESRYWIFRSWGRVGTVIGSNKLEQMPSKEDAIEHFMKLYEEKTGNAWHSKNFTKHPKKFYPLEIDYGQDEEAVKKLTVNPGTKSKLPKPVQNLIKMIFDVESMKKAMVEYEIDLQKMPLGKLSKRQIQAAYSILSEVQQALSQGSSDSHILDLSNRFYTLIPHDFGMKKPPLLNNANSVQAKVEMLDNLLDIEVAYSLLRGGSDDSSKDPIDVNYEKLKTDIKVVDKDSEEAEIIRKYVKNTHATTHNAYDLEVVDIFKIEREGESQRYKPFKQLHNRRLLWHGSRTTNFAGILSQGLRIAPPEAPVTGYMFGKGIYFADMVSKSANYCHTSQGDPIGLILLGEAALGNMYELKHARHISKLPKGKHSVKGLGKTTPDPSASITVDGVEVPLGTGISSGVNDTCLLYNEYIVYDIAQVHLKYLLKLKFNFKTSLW

SMILES | IC50 [1] [nM] | further results
COCC(O)Cn1ccnc1[N+](=O)[O-] (stereo not drawn) [misonidazole, α-(methoxymethyl)-2-nitro-1H-imidazole-1-ethanol] | – | radiosensitizing activity (hypoxic tumor cells): of value as a radiosensitizer for hypoxic tumor cells; also recorded: effective as radiosensitizers for hypoxic cells in vivo; CNS side effects (central nervous system; administered to mice): peripheral neuropathy effects and convulsions in mice
O=C1NCCc2ncccc21 [Compound 13, 7,8-Dihydro-1,6-naphthyridin-5(6H)-one] | 2500 | T-C (days for treated minus control tumors to reach 1000 mg) (Rif-1 sarcoma; 500 mg/kg/inj + x-Ray (2.5 Gy × 2)): 26 days
CN1CCCc2c1cc[nH]c2=O [Compound 8, 1,2,3,4-Tetrahydro-1-methyl-1,6-naphthyridin-5 (6H) one] | 510 | T-C (days for treated minus control tumors to reach 1000 mg) (Rif-1 sarcoma; 340 mg/kg/inj + x-Ray (2.5 Gy × 2)): 38 days
NC(=O)c1cccc(N)c1 [3-aminobenzamide] | – | sensitization to lethal effects of radiation / inhibition of repair [2]: inhibit this postirradiation repair process; also recorded: repair of damage caused by exposure to DNA-damaging agents such as ionizing radiation, was inhibited
Cc1cccc2c1CCNC2=O [Reference Compound] | 110 | –
Cc1ncc([N+](=O)[O-])n1CCO [metronidazole, 2-methyl-5-nitro-1H-imidazole-1-ethanol] | – | radiosensitizing activity (hypoxic tumor cells): effective as radiosensitizers for hypoxic cells in vivo; radiosensitizing activity (hypoxic tumor cells; listed as Metronidazole): active both in vitro and in vivo as a radiosensitizer; CNS side effects (central nervous system; mouse, in vivo): peripheral neuropathy effects and convulsions in mice
CNC=O [N-methylformamide] | – | sensitization to lethal effects of radiation / inhibition of repair [2]: sensitize tumors to the lethal effects of radiation
O=c1[nH]ccc2c1CCCN2 [Compound 6, 1,2,3,4-Tetrahydro-1,6-naphthyridine-5(6H)-one] | 1000 to 10000 | –

More lines, main results first:

IC50 [1] [nM] | SMILES | further results
1200 | Cc1cc2ncccc2c(=O)[nH]1 [Compound 4, 7-Methyl-1,6-naphthyridine-5 (6H) -one] | –
1000 to 10000 | O=c1[nH]cc(Br)c2ncccc12 [Compound 5, 8Bromo-1,6-naphthyridine-5(6H) -one] | –
10000 to 100000 | C[n+]1cccc2c(=O)[nH]ccc21 [Compound 7, 5,6-Dihydro-1-methyl-5-oxo-1,6-naphthyridin-1-ium monoiodide] | –
10000 to 100000 | O=c1[nH]ccc2c1ccc[n+]2[O-] [Compound 9, 1,6-Naphthyridine-5(6H)-one, 1-oxide] | –
1000 to 10000 | O=c1[nH]ccc2ncccc12 [Compound 3, 1,6-Naphthyridine-5(6H)-one] | –
